From patent US20090005348A1, “Compounds Having Cytokine Modulating Properties” (VITAL HEALTH SCIENCES PTY LTD, priority 2005, published 2009)

Legend:
[1] = test system: PAI-1; test: PAI-1 activity in the plasma of hypercholesterolemic rabbits; type: in vivo, New Zealand albino rabbits; conditions: TA at 300 mg/kg feed, 2% cholesterol diet, 4 weeks
Source text: (§1) 47 female New Zealand albino rabbits were obtained at 4-8 weeks of age. They were divided into 7 treatment groups, which consisted of 5-10 animals per group. All the animals were placed on a vitamin E stripped diet, and all the diets contained 2% cholesterol except for the control group (which contained no cholesterol) for 4 weeks (containing the various TA or TPm treatments outlined below). [table] At the end of the treatment period the animals were sacrificed and the blood collected. The plasma was obtained from this blood and the levels of various markers of inflammation were determined and included: IL-1β, IL-6, IL-8, TNF, PAI-1, and CRP. Other markers of inflammation such as CD36 was determined from mRNA isolated from the aortas of the rabbits to determine expression levels.

[2] = test system: TNF; test: TNF level in the plasma of hypercholesterolemic rabbits; type: in vivo, New Zealand albino rabbits; conditions: TA at 300 mg/kg feed, 2% cholesterol diet, 4 weeks
Source text: as §1

[3] = test system: IL-1β; test: IL-1β level in the plasma of hypercholesterolemic rabbits; type: in vivo, New Zealand albino rabbits; conditions: TA at 300 mg/kg feed, 2% cholesterol diet, 4 weeks
Source text: as §1

[4] = test system: T cells from old (>22 months) C57BL mice; test: T cell proliferation ([3H] thymidine, anti-CD3/anti-CD28), old mice; type: cell-based; conditions: all the alpha-T treatments (12.5-100 μM), n=6, p<0.05, FIG. 8
Method: T cells from young (4 to 6 months) and old (>22 months) C57BL mice were isolated and purified from splenocytes by negative selection using Pan T cell isolation kit from Miltenyi Biotech.
The tocopherol phosphate mixture (alpha-TP) provided by Phosphagenics Limited was composed of approximately ⅔ mono-tocopheryl phosphate (MW 510.7) and ⅓ di-tocopheryl phosphate (MW 923.3), which makes the MW of the compound 598.0. Ethanol was used to dissolve the solid alpha-TP mixture to make a 107.52 mg/ml stock solution ([…]). 34 mg/ml alpha-tocopherol (alpha-T) in ethanol was used as a stock solution of alpha-T (79.06 mM). The solutions used for pre-incubation and incubation were prepared as follows: […]
After pre-incubation, the cells were stimulated (2×10^5 cells/well) in triplicate in a round bottom 96-well plate with plate-bound anti-CD3 (5 μg/ml, anti-CD3e (145-2C11), Pharmingen Cat# 553058) and soluble anti-CD28 (2 μg/ml, final concentration, anti-CD28 (37.51), Pharmingen Cat# 553294) in RPMI medium containing 5% FBS (final concentration and same concentration of vehicle, alpha-tocopherol or alpha-tocopherol phosphate used in the pre-incubation. The cells were incubated at 35° C., 5% CO2 for 64 hours, then, pulsed with 0.5 μCi of [^3H] thymidine for 8 hours. The cells were harvested onto filter paper and proliferation was quantified as the amount of [^3H] […]

CC(=O)Oc1c(C)c(C)c2c(c1C)CCC(C)(CCC[C@H](C)CCC[C@H](C)CCCC(C)C)O2 (stereo partly shown) [TA, tocopherol acetate]
plasma PAI-1 activity [1]: modest decreases
plasma TNF [2]: modest decreases
plasma IL-1β [3]: modest decreases

Cc1c(C)c2c(c(C)c1O)CC[C@@](C)(CCC[C@H](C)CCC[C@H](C)CCCC(C)C)O2 [alpha-T, alpha-tocopherol]
T cell proliferation compared to vehicle [4]: significant increase in proliferation
